Results published in patent US20250275976A1, “Methods of Treating Neuroinflammatory Conditions” (Athira Pharma, Inc., priority 2022, published 2025).
Like-named read-outs stand apart in the source and are kept apart here.

Legend:
[1] = system: Rat primary cortical neuron cultures; experiment: Neuroprotection of rat cortical neurons against LPS challenge (Cell Titer-Glo); details: at at least one dose tested
Description: (§1) To assess the neuroprotective effect of compound treatment against inflammatory insult, primary cultured cortical neurons were subjected to lipopolysaccharide (LPS) treatment for 24h along with various compound doses of compounds of Formula (I) or Compound A19. […] Rat primary cortical neuron cultures were grown at 37° C., 5% C02 in Complete Neurobasal Medium supplemented with B27/GDNF/BDNF containing 10% FBS until maturity. 25 μl of culture volume were seeded in a 384-well plate at 5,000 cells/well, and treated with 1 μM, 100 nM, 10 nM, 1 nM, or 0.1 nM of test compound for 15 minutes. Cells were then subjected to 1 μM LPS challenge for 24 hours. Luminescence measurements to assess relative levels of ATP were performed on an Envision plate reader (Perkin Elmer). Data for DMSO control were set to 100% cell viability, and each group (n=4) were averaged and presented as mean±SEM.

[2] = system: Rat primary cortical neuron cultures; details: LPS 24 h
Description: as §1

[3] = system: THP-1-differentiated macrophages; experiment: Pro-inflammatory cytokines in supernatants of LPS-challenged THP-1-differentiated macrophages; type: cell-based, human; set-up: key to Significant reduction in pro-inflammatory cytokine expression: IL-6 / Significant reduction in pro-inflammatory cytokine expression: TNF-α / Significant reduction in pro-inflammatory cytokine expression: IL-1β: “NS” indicates a non-significant reduction in the indicated cytokine; “+” indicates a p value <0.05 in Tukey post test; “++” indicates a p value <0.01 in Tukey post test; details: for Significant reduction in pro-inflammatory cytokine expression: IL-1β / Significant reduction in pro-inflammatory cytokine expression: IL-6 / Significant reduction in pro-inflammatory cytokine expression: TNF-α: LPS 24 hrs
Text: Neuroinflammation plays a crucial role in disease progression and is a complex phenomenon involving various cells that affect many extra- and intracellular signaling pathways and cytokine production. The macrophage of the brain (microglia) is the main agent of innate immunity in the CNS and performs various functions, including neuroprotection, in response to inflammatory signals. Activated microglia participate in developing neuroinflammation, responding to toxic exogenous substances (like LPS) or endogenous substances (like amyloid-beta). Here, THP-1 cells were used as an in-vitro cell model to evaluate mechanisms relevant to CNS inflammation. Differentiation with phorbol-12-myristate-13-acetate (PMA) causes THP-1 monocyte cells to acquire functional and morphological resemblance to macrophages. LPS interacts with THP-1 differentiated macrophage through the toll-like receptor 4, triggering the inflammatory response and stimulating pro-inflammatory cytokine release and eventually leading to cellular death. Test compounds were investigated for whether they have anti-inflammatory effects on LPS-challenged macrophage cultures. THP-1-differentiated macrophages were treated with test compounds for 20 minutes, followed by 24 hrs of LPS challenge. Culture supernatants were then collected to analyzed for the presence of pro-inflammatory cytokines: interleukin 1β (IL--1β), interleukin 6 (IL-6) and tumor necrosis factor α (TNF-α).
Cytokine quantification in cell culture supernatants was accomplished by homogeneous time resolved fluorescence (HTRF) kits to assess levels of IL-1β (Human IL-1β kit, #62HIL1BPEG, Cisbio) and IL-6 (Human IL-6 kit, 62HILO6PET, Cisbio), and by ELISA (Human TNF-α ELISA kit, KHC3011, ThermoFisher) to determine the levels of TNF-α.
Data analysis was performed via 1-way ANOVA with Tukey post-test compared to LPS treatment cultures using Prism statistical software (GraphPad). Tabular data indicates significance of reduction in culture supernatants for the indicated analyte at the indicated dose.

Prp-TDP43^A315T mice = type: in vivo
Description: Extranuclear accumulation of TDP-43 protein is a pathological hallmark of a number of neurological diseases. […] Male Prp-TDP43^A315T mice (N=10 mice per group) at 3 weeks of age were administered daily treatments of test compounds. Compound A19 was administered via subcutaneous injection, and Compound 5a and Compound 6a were administered via oral gavage. After 2 months of treatment, plasma samples were collected for cytokine quantification. […] Plasma IL-6 and TNF-α cytokine expression levels were determined using the ELISA method. The submandibular vein was punctured with a lancet and a blood drop was collected directly on a microtube containing EDTA as anticoagulant. Samples were centrifuged for 15 minutes at 1000×g at 4° C. within 20 minutes of collection. 20 μl of plasma supernatant was stored at −20° C. before ELISA analysis.
Plasma was diluted at 1:10 in sterile PBS, and IL-6 and TNF-α quantification was performed in duplicate for each animal using 10 μl of sample per well in 96-well plates using the ELISA method (IL-6: Signa-Aldrich Cat #RAB0308, TNF-α: Sigma-Aldrich Cat #RAB0477). Statistical analysis was carried out by 2-way ANOVA with Dunnett's multiple comparisons post-test with compound-treated samples compared to vehicle-treated samples.

[4] = system: primary culture of both cortical neurons and microglia; experiment: Microglial activation (Iba1 area) after Aβ1-42 challenge; type: cell-based; details: 5 ng/ml; 15 min Pre-Aβ challenge
[5] = 2 months of treatment, doses as in the value

CCC(C)CN1CC2N(Cc3ccc(OC(F)F)cc3)CCC(=O)N2[C@@H](C)C1=O (some centres unmarked) [Compound 6a]
Protection of primary neurons from LPS-stimulated inflammatory toxicity (in words) [1]: protected primary neurons from LPS-stimulated inflammatory toxicity
Significance of neuroprotection vs 1 uM LPS ([2]; dose 0.1 nM): +++ (+++ indicates p<0.001)
Significance of neuroprotection vs 1 uM LPS ([2]; dose 1 nM): +++ (+++ indicates p<0.001)
Significance of neuroprotection vs 1 uM LPS ([2]; dose 10 nM): +++ (+++ indicates p<0.001)
Significance of neuroprotection vs 1 uM LPS ([2]; dose 100 nM): +++ (+++ indicates p<0.001)
Significance of neuroprotection vs 1 uM LPS ([2]; dose 1 μM): +++ (+++ indicates p<0.001)
Expression of IL-1β and TNF-α (result in words) ([3]; at at least one tested dose): significantly reduced
Significant reduction in pro-inflammatory cytokine expression: IL-1β ([3]; dose 0.1 nM): NS
Significant reduction in pro-inflammatory cytokine expression: IL-6 ([3]; dose 0.1 nM): NS
Significant reduction in pro-inflammatory cytokine expression: TNF-α ([3]; dose 0.1 nM): NS
Significant reduction in pro-inflammatory cytokine expression: IL-1β ([3]; dose 10 nM): NS
Significant reduction in pro-inflammatory cytokine expression: IL-6 ([3]; dose 10 nM): NS
Significant reduction in pro-inflammatory cytokine expression: TNF-α ([3]; dose 10 nM): NS
Significant reduction in pro-inflammatory cytokine expression: IL-1β ([3]; dose 1000 nM): + (“+” indicates a p value <0.05 in Tukey post test)
Significant reduction in pro-inflammatory cytokine expression: IL-6 ([3]; dose 1000 nM): NS
Significant reduction in pro-inflammatory cytokine expression: TNF-α ([3]; dose 1000 nM): + (“+” indicates a p value <0.05 in Tukey post test)
Significant decrease in plasma cytokine expression after 2 months of treatment: IL-6 (Prp-TDP43^A315T mice; 10 mg/kg PO daily): ++++ (++++ = p < 0.0001)
Significant decrease in plasma cytokine expression after 2 months of treatment: TNF-α (Prp-TDP43^A315T mice; 10 mg/kg PO daily): ++++ (++++ = p < 0.0001)
Significant decrease in plasma cytokine expression after 2 months of treatment: IL-6 (Prp-TDP43^A315T mice; 20 mg/kg PO daily): ++++ (++++ = p < 0.0001)
Significant decrease in plasma cytokine expression after 2 months of treatment: TNF-α (Prp-TDP43^A315T mice; 20 mg/kg PO daily): ++++ (++++ = p < 0.0001)
Plasma IL-6 expression (result in words) (Prp-TDP43^A315T mice; [5]): significantly reduced expression of both cytokines at doses of 10 and 20 mg/kg
Plasma TNF-α expression (result in words) (Prp-TDP43^A315T mice; [5]): significantly reduced expression of both cytokines at doses of 10 and 20 mg/kg

HGF: Hepatocyte growth factor, 5 ng/ml treatment in the microglia culture
Significant decrease in Iba1 area, compared to vehicle treated (Aβ challenge) [4]: + (“+” indicates a p value < 0.05 in Fisher's LSD post-test compared to Aβ challenged)
